{
  "source": "patent US6040291A",
  "about": "“Antimicrobial peptide” (Seikagaku Corporation, priority 1998, dated 2000)",
  "system": "E. coli O157:H7",
  "assay": "Antimicrobial activity on E. coli O157:H7 (CFU count, IC50)",
  "assay_type": "cell-based",
  "details": "Table 6",
  "protocol": "Measurement method for antimicrobial activity: For the measurement of antimicrobial activity, E. coli [E. coli O157:H7 (collected from an E. coli O157 patients in Okayama prefecture, Kanagawa prefecture and Morioka city of Iwate Prefecture)], Klebsiella or Methicillin resistant Staphylococcus aureus; MRSA] was used.\nThese bacteria were grown in a liquid medium (Tryptosoy broth; manufactured by Eiken Kagaku). The bacteria cells in a logarithmic growth phase were collected, washed with PBS (pH 7.2), and adjusted to a final concentration of 5 ×10^3 to 1×10^4 cells/ml. To 450 μl of cell suspension, 50 μl of samples (peptide) in various concentrations were each added and mixtures were incubated at 37° C. for 1 hour. After the incubation, 100 μl of each reaction mixture was spread on an agarose medium (Nutrient agar; manufactured by Eiken Kagaku). This was incubated at 37° C. for 24 hours and the colony-forming unit (CFU) was counted to obtain 50% inhibition concentration (IC50).\nPolymyxin B (known antimicrobial agent), A1, the peptide of the present invention (b), A3, the peptide of the present invention (d), A5 and A6 were used as samples and their antimicrobial activities on E. coli [E. coli O157:H7 (collected from E. coli O157 patients in Okayama prefecture, Kanagawa prefecture and Morioka city of Iwate Prefecture)] were examined by the above-described measurement method. […]",
  "data": [
    {"substance": "Polymyxin B", "values": [
      {"measurement": "Antimicrobial Activity on E. Coli O157:H7 (IC50)", "setting": "isolate Kanagawa", "value": "< 2.5", "unit": "µg/mL"},
      {"measurement": "Antimicrobial Activity on E. Coli O157:H7 (IC50)", "setting": "isolate Okayama", "value": 0.2, "unit": "µg/mL"}
    ]}
  ]
}
